# Test results from patent publication US20240299562A1 (priority 2020, published 2024).
# Several values for one entry are separate records, joined by “and”; a condition that tells them apart may be missing. Identical values can stand only once. Like-named read-outs stand apart in the source and are kept apart here. *1 amine or outer side, *2 acyl side, *3 side chain or, on linkers, in order; H or OH if unused. Where a SMILES comes first, the peptide text is derived from it. [ ]: non-standard residue; d: D form. The star is where a group is joined. X1 = CO[C@@H](C1CCCN1[*:1])[C@@H](C)C(=O)[*:2]; Dil = CC[C@H](C)[C@H](NC)[C@@H](CC(=O)O)OC; PABC = O=C(OCc1ccc(N[*:1])cc1)[*:2]; Phosphonoacetyl = O=C(CP(=O)(O)O)*; X2 = C[C@@H](N*)[C@@H](O)c1ccccc1; NMeV = CN[C@H](C(=O)O)C(C)C
# Key:
# A2058 cells = experiment: WST-1 cell viability, A2058 melanoma cells; type: cell-based; details: for IC50: read-out: Absolute IC50
# Procedure: (§1) All commercial cell lines were purchased at ATCC (LGC Standards SARL, France). Cells were seeded in 96-well plates according to their optimal seeding density, varying between 5.000 and 10.000 cells/well. After attachment overnight, 10-point serial titrations (1:5) were prepared in their equivalent complete media as recommended by ATCC, starting from the 10 mM stock solutions. For doxorubicin comprising prodrugs dilutions started from 100 μM, while for the parent compound doxorubicin dilutions started at 10 μM. […] Seventy-two hours later, compounds were removed together with the supernatants and cells were washed once with PBS to remove excess drugs.
# (§2) The WST-1 assay for cell proliferation and viability (Roche, Switzerland) was performed according to manufacturer's protocol. Absorbances were measured at 4 hrs using a Perkin Elmer Ensight multiplate reader, equipped with Kaleido 2.0 software (Perkin Elmer, USA). Cell viability was expressed as a percentage compared to non-treated cells. Absolute IC50 values were extrapolated from a non-linear fitting following the Sigmoidal-4PL regression method using Graphpad Prism 7.0. Likewise, maximal efficacy was determined as 100% minus the cell viability determined when cells are incubated in the presence of a compound. For instance, if 20% of the cells survive incubation in the presence of a compound, then the maximal efficacy of that compound is 100%-20%=80%.
# (§3) Selectivity indices (SI) were defined as the ratio of the concentration of drug required to kill 50% of the cells in normal (control, non-cancer) cells, divided by the concentration required to exert the same efficacy in tumor cells: SI=IC50 (control cell)/IC50 (cancer cell), or SI=^HME-1IC50/cancer IC50.
# A-172 cells = experiment: WST-1 cell viability, A-172 glioblastoma cells; type: cell-based; details: for IC50: read-out: Absolute IC50
# Procedure: as §1, §2, §3
# U-87 MG cells = experiment: WST-1 cell viability, U-87 MG glioblastoma cells; type: cell-based; details: for IC50: read-out: Absolute IC50
# Procedure: as §1, §2, §3
# HME-1 cells = experiment: WST-1 cell viability, normal HME-1 cells; type: cell-based, human; details: for IC50: read-out: Absolute IC50
# Procedure: as §1, §2, §3
# MDA-MB-231 cells = experiment: WST-1 cell viability, MDA-MB-231 triple negative breast cancer cells; type: cell-based; details: for IC50: read-out: Absolute IC50
# Procedure: as §1, §2, §3
# [1] = tested on: hiPSC-derived astrocytes (iAstro); experiment: WST-1 cell viability, hiPSC-derived astrocytes (iAstro); type: cell-based, human; details: iAstro normal astrocytes, 72 hrs
# Procedure: as §1, §2, §3
# hiPSC-derived astrocytes were purchased from Tempo Biosciences (iAstro™). Prior to use, six-well plates were coated with 1 ml GFR Matrigel (1:100˜0.1 mg/ml, Corning #356231) and allowed to polymerize at 37° C. overnight. Three days before assaying, cells were defrosted and seeded onto the GFR Matrigel in iAstro medium, and allowed to recover from defrosting for 48 hrs. The recovery was aided using RevitaCell™ Supplement during the first 24 hrs. After morphological inspection, cells were transferred to 96-well plates and 4-well microscopy vessels (Millipore), coated with Poly-L-lysine (50 μg/ml, P2533, Sigma Aldrich) and mouse laminin (4 ng/ml, L2020, Sigma Aldrich), using StemPro Accutase reagent (Invitrogen). Following overnight recovery, iAstro's were exposed to the same treatment protocol described above.
# [2] = tested on: Human umbilical vein endothelial cells (HUVEC); experiment: WST-1 cell viability, normal HUVEC cells; type: cell-based; details: 72 hrs
# Procedure: as §1, §2, §3
# DU145 cells = experiment: WST-1 cell viability, DU145 prostate cancer cells; type: cell-based
# Procedure: as §1, §2, §3
# MIA PaCa-2 cells = experiment: WST-1 cell viability, MIA PaCa-2 pancreatic cancer cells; type: cell-based
# Procedure: as §1, §2, §3
# NCI-H292 cells = experiment: WST-1 cell viability, NCI-H292 lung cancer cells; type: cell-based
# Procedure: as §1, §2, §3
# A2780 Cp cells = experiment: WST-1 cell viability, A2780 CpR (cisplatin resistant) ovarian cancer cells; type: cell-based
# Procedure: as §1, §2, §3
# [3] = WST-1 (Table 4), read-out: Absolute IC50
structure (smiles),measurement,setting,value
CC[C@H](C)[C@@H]([C@@H](CC(=O)N1CCCC1[C@H](OC)[C@@H](C)C(=O)N[C@H](C)[C@@H](O)c1ccccc1)OC)N(C)C(=O)[C@@H](NC(=O)[C@H](C(C)C)N(C)C(=O)OCc1ccc(NC(=O)[C@@H]2CCCN2C(=O)[C@H](CC(C)C)NC(=O)[C@H](CC(C)C)NC(=O)[C@H](C)NC(=O)CP(=O)(O)O)cc1)C(C)C (stereo partly drawn) [PhAc-ALLP-PABC-MMAE] (Phosphonoacetyl-ALLP[PABC][NMeV]V[Dil][X1]-X2),SI = normal IC50 / cancer IC50,"A2058 cells; A2058 (Melanoma), selectivity towards HME-1 cells (Table 6)",0.3
same,IC50,"A2058 cells; A2058 (Melanoma), 72 hrs, WST-1 (Table 4)",30 nM
same,Maximal efficacy,"A2058 cells; A2058 (Melanoma), 72 hrs, WST-1 (Table 5)",95.2%
same,SI = HUVEC IC50 / cancer IC50,"A-172 cells; A-172 (GBM), * towards HUVEC cells (Table 6)",*1.9
same,SI = iAstro IC50 / cancer IC50,"A-172 cells; A-172 (GBM), ** towards hiPSCs (iAstro) (Table 6)",**>500
same,SI = normal IC50 / cancer IC50,"A-172 cells; A-172 (GBM), selectivity towards HME-1 cells (Table 6)",0.1
same,IC50,"A-172 cells; A-172 (GBM), 72 hrs, WST-1 (Table 4)",90 nM
same,Maximal efficacy,"A-172 cells; A-172 (GBM), 72 hrs, WST-1 (Table 5)",97.4%
same,"Selectivity index determined on HUVECs, GBM","A-172 cells; GBM indication as a whole (A-172 and U-87 MG), vs HUVEC",2.2
same,"Selectivity index towards hiPSC-derived astrocytes, GBM","A-172 cells; GBM indication as a whole (A-172 and U-87 MG), vs iAstro",> 10
same,SI = HUVEC IC50 / cancer IC50,"U-87 MG cells; U-87 MG (GBM), * towards HUVEC cells (Table 6)",*2.4
same,SI = iAstro IC50 / cancer IC50,"U-87 MG cells; U-87 MG (GBM), ** towards hiPSCs (iAstro) (Table 6)",**>500
same,SI = normal IC50 / cancer IC50,"U-87 MG cells; U-87 MG (GBM), selectivity towards HME-1 cells (Table 6)",0.1
same,IC50,"U-87 MG cells; U-87 MG (GBM), 72 hrs, WST-1 (Table 4)",70 nM
same,Maximal efficacy,"U-87 MG cells; U-87 MG (GBM), 72 hrs, WST-1 (Table 5)",86.6%
same,Toxicity compared to MMAE on mammary epithelial (HME-1) cells,HME-1 cells; HME-1 normal cells,not significantly different
same,IC50,"HME-1 cells; HME-1 normal cells, 72 hrs, WST-1 (Table 4)",10 nM
same,Maximal efficacy,"HME-1 cells; HME-1 normal cells, 72 hrs, WST-1, cytotoxicity at highest concentration (Table 5)",99.5%
same,SI = normal IC50 / cancer IC50,"MDA-MB-231 cells; MDA-MB-231 (TNBC), selectivity towards HME-1 cells (Table 6)",0.2
same,IC50,"MDA-MB-231 cells; MDA-MB-231 (TNBC), 72 hrs, WST-1 (Table 4)",40 nM
same,Maximal efficacy,"MDA-MB-231 cells; MDA-MB-231 (TNBC), 72 hrs, WST-1 (Table 5)",77.6%
same,IC50,[1]; [3],> 500 nM
same,Maximal efficacy,[1]; WST-1 (Table 5),2% and 1.7%
same,IC50,[2]; [3],170 nM
same,Maximal efficacy,[2]; WST-1 (Table 5),98.1%
"COc1cccc2c1C(=O)c1c(O)c3c(c(O)c1C2=O)C[C@@](O)(C(=O)CO)C[C@@H]3O[C@H]1C[C@H](N)[C@H](O)[C@H](C)O1 [Doxorubicin, reference compound]",SI = HME-1 IC50/cancer IC50,A2058 cells; A2058 (Melanoma) vs HME-1 (Table 3),0.11
same,cytotoxicity at 100 µM,"A2058 cells; Homo sapiens, A2058, 72 h, read-out: Maximal efficacy, cytotoxicity (%) at 100 μM",97%
same,IC50,"A2058 cells; Homo sapiens, A2058 (Melanoma), 72 hrs, WST-1 (Table 1)",410 nM
same,SI = HME-1 IC50/cancer IC50,A-172 cells; A-172 (GBM) vs HME-1 (Table 3),0.01
same,cytotoxicity at 100 µM,"A-172 cells; Homo sapiens, A 172, 72 h, read-out: Maximal efficacy, cytotoxicity (%) at 100 μM",89.9%
same,IC50,"A-172 cells; Homo sapiens, A-172 (GBM), 72 hrs, WST-1 (Table 1)",3360 nM
same,cytotoxicity at 100 µM,"U-87 MG cells; Homo sapiens, U-87 MG, 72 h, read-out: Maximal efficacy, cytotoxicity (%) at 100 μM",71.8%
same,IC50,"U-87 MG cells; Homo sapiens, U-87 MG (GBM), 72 hrs, WST-1 (Table 1)",70 nM
same,SI = HME-1 IC50/cancer IC50,U-87 MG cells; U-87 MG (GBM) vs HME-1 (Table 3),0.59
same,SI = HME-1 IC50/cancer IC50,DU145 cells; DU145 (PrC) vs HME-1 (Table 3),1.55
same,IC50,"DU145 cells; Homo sapiens, DU-145, DU145 (PrC), 72 hrs, WST-1 (Table 1), read-out: Absolute IC50",30 nM
same,cytotoxicity at 100 µM,"DU145 cells; Homo sapiens, DU-145, DU145 (PrC), 72 hrs, WST-1 (Table 2), read-out: Maximal efficacy, cytotoxicity (%) at 100 μM",92.5%
same,IC50,"MIA PaCa-2 cells; Homo sapiens, MIA PaCa-2 (PaC), 72 hrs, WST-1 (Table 1), read-out: Absolute IC50",100 nM
same,cytotoxicity at 100 µM,"MIA PaCa-2 cells; Homo sapiens, MIA PaCa-2 (PaC), 72 hrs, WST-1 (Table 2), read-out: Maximal efficacy, cytotoxicity (%) at 100 μM",94.4%
same,SI = HME-1 IC50/cancer IC50,MIA PaCa-2 cells; MIA PaCa-2 (PaC) vs HME-1 (Table 3),0.44
same,IC50,"NCI-H292 cells; Homo sapiens, NCI-H292 (NSCLC), 72 hrs, WST-1 (Table 1), read-out: Absolute IC50",30 nM
same,cytotoxicity at 100 µM,"NCI-H292 cells; Homo sapiens, NCI-H292 (NSCLC), 72 hrs, WST-1 (Table 2), read-out: Maximal efficacy, cytotoxicity (%) at 100 μM",90.4%
same,SI = HME-1 IC50/cancer IC50,NCI-H292 cells; NCI-H292 (NSCLC) vs HME-1 (Table 3),1.62
same,SI = HME-1 IC50/cancer IC50,HME-1 cells; HME-1 normal cells against themselves (Table 3),1.00
same,IC50,"HME-1 cells; Homo sapiens, HME1, HME-1 normal cells, 72 hrs continuous drug exposure, WST-1 (Table 1)",40 nM
same,cytotoxicity at 100 µM,"MDA-MB-231 cells; Homo sapiens, MDA-MB-231, 72 h, read-out: Maximal efficacy, cytotoxicity (%) at 100 μM",91.5%
same,IC50,"MDA-MB-231 cells; Homo sapiens, MDA-MB-231 (TNBC), 72 hrs, WST-1 (Table 1)",120 nM
same,SI = HME-1 IC50/cancer IC50,MDA-MB-231 cells; MDA-MB-231 (TNBC) vs HME-1 (Table 3),0.38
same,cytotoxicity at 100 µM,"A2780 Cp cells; A2780C/P, A2780 Cp (OvC), 72 hrs, WST-1 (Table 2), read-out: Maximal efficacy, cytotoxicity (%) at 100 μM",94.8%
same,IC50,"A2780 Cp cells; A2780C/P, A2780 Cp (OvC, cisplatin resistant), 72 hrs, WST-1 (Table 1), read-out: Absolute IC50",80 nM
same,SI = HME-1 IC50/cancer IC50,A2780 Cp cells; A2780 Cp (OvC) vs HME-1 (Table 3),0.57
